Experimental data as given in patent US5409933A, “Quinoline derivatives and processes for preparing the same” (priority 1993, dated 1995).
Counter-ions that a name gives are not always drawn. Like-named read-outs stand apart in the source and are kept apart here.

Tests used:
Assay in all cases: In Vitro Anti-Bacterial Activity Test (MIC, agar dilution)
Type in all cases: cell-based
Escherichia coli TEM = conditions: Escherichia coli, 18 h, Muller-Hinton agar, 37° C.
Procedure: (§1) The above in vitro antibacterial activity test was carried out in accordance with the agar culture medium dilution method (Hoechst 345) by using Muller-Hinton agar medium to determine the minimum inhibitory concentration (MIC).
(§2) The strains having 10^7 C.F.U./ml were inoculated on the culture medium, and the growth of the strains was observed after incubating them at 37° C. for 18 hours, in which ciprofloxacin was used as a control antibacterial agent. In this test, twenty typical strains were used.

Escherichia coli 078 = test system: Escherichia coli 078
Procedure: as §1, §2

Salmonella typhimurium = conditions: Salmonella enterica; Salmonella typhimurium; Muller-Hinton agar, 37° C., 18 hours; read-out: MIC
Procedure: as §1, §2

[1] = test system: Pseudomonas aeruginosa 1592E; conditions: Muller-Hinton agar, 37° C., 18 hours, read-out: MIC
Procedure: as §1, §2

[2] = test system: Enterobacter cloacae 1321E
Procedure: as §1, §2

Enterobacter cloacae P99 = conditions: Enterobacter cloacae, P99, 18 h
Procedure: as §1, §2

Escherichia coli DC0 = conditions: Muller-Hinton agar, 37° C., 18 hours, read-out: MIC
Procedure: as §1, §2

[3] = test system: Staphylococcus aureus 503; conditions: Staphylococcus aureus 503; Muller-Hinton agar, 37° C., 18 hours; read-out: MIC
Procedure: as §1, §2

Escherichia coli DC2 = test system: Escherichia coli DC2
Procedure: as §1, §2

[4] = test system: Pseudomonas aeruginosa 1771M; conditions: Pseudomonas aeruginosa, 1771M, 18 h, Muller-Hinton agar, 37° C.
Procedure: as §1, §2

[5] = test system: Staphylococcus aureus 285; conditions: Staphylococcus aureus 285, Muller-Hinton agar, 37° C., 18 hours
Procedure: as §1, §2

[6] = test system: Streptococcus pyogenes 308A; conditions: Muller-Hinton agar, 37° C., 18 hours, read-out: MIC
Procedure: as §1, §2

Escherichia coli 1507E = conditions: Escherichia coli, 1507E, 18 h, Muller-Hinton agar, 37° C.
Procedure: as §1, §2

[7] = test system: Staphylococcus aureus SG511; conditions: Staphylococcus aureus SG511; Muller-Hinton agar, 37° C., 18 hours; read-out: MIC
Procedure: as §1, §2

Klebsiella oxytoca 1082E = conditions: Klebsiella oxytoca 1082E; Muller-Hinton agar, 37° C., 18 hours; read-out: MIC
Procedure: as §1, §2

[8] = test system: Streptococcus pyogenes 77A
Procedure: as §1, §2

[9] = test system: Klebsiella aerogenes 1522E; conditions: Klebsiella aerogenes, 1522E, 18 h
Procedure: as §1, §2

[10] = test system: Pseudomonas aeruginosa 9027; conditions: Muller-Hinton agar, 37° C., 18 hours, read-out: MIC
Procedure: as §1, §2

[11] = test system: Pseudomonas aeruginosa 1771; conditions: Pseudomonas aeruginosa 1771; Muller-Hinton agar, 37° C., 18 hours; read-out: MIC
Procedure: as §1, §2

[12] = test system: Streptococcus faecium MD8b; conditions: Enterococcus faecium, Muller-Hinton agar, 37° C., 18 hours, read-out: MIC
Procedure: as §1, §2

[13] = Escherichia coli 078, Muller-Hinton agar, 37° C., 18 hours, read-out: MIC
[14] = Enterobacter cloacae 1321E, Muller-Hinton agar, 37° C., 18 hours, read-out: MIC
[15] = Staphylococcus aureus, 285, 18 h, read-out: MIC
[16] = Streptococcus pyogenes 77A, Muller-Hinton agar, 37° C., 18 hours, read-out: MIC
[17] = Klebsiella aerogenes 1522E, Muller-Hinton agar, 37° C., 18 hours, read-out: MIC
[18] = Streptococcus pyogenes, 77A, 18 h

C[C@@H]1CN(c2c(F)c(N)c3c(=O)c(C(=O)C[N+](=O)[O-])cn(C4CC4)c3c2F)C[C@H](C)N1 [Example 14, 1-cyclopropyl-5-amino-6,8-difluoro-7-(3,5-cis-dimethylpiperazin-1-yl)-3-(2-nitroacetyl)-1,4-dihydro-4-oxoquinoline hydrochloride]
MIC (Escherichia coli TEM): 0.007 mg/L
MIC (Escherichia coli 078; [13]): < 0.002 mg/L
MIC (Salmonella typhimurium): < 0.002 mg/L
MIC [1]: 0.781 mg/L
MIC [2, 14]: < 0.002 mg/L
MIC (Enterobacter cloacae P99): 0.007 mg/L
MIC (Escherichia coli DC0): 0.098 mg/L
MIC [3]: 0.049 mg/L
MIC (Escherichia coli DC2; Escherichia coli, DC2, 18 h): 0.049 mg/L
MIC [4]: 0.195 mg/L
MIC [5, 15]: 0.098 mg/L
MIC [6]: 1.56 mg/L
MIC (Escherichia coli 1507E): 0.013 mg/L
MIC [7]: 0.098 mg/L
MIC (Klebsiella oxytoca 1082E): < 0.002 mg/L
MIC [8, 16]: 0.195 mg/L
MIC [9, 17]: 0.025 mg/L
MIC [10]: 0.781 mg/L
MIC [11]: 0.391 mg/L
MIC [12]: 0.391 mg/L

NC1CCN(c2cc3c(cc2F)c(=O)c(C(=O)C[N+](=O)[O-])cn3-c2ccc(F)cc2F)C1 (centres unmarked) [Example 9, 1-(2,4-difluorophenyl)-6-fluoro-7-(3-aminopyrrolidin-1-yl)-3-(2-nitroacetyl)-1,4-dihydro-4-oxoquinoline hydrochloride]
MIC (Escherichia coli TEM): < 0.002 mg/L
MIC (Escherichia coli 078; Escherichia coli, 078, 18 h): 0.007 mg/L
MIC (Salmonella typhimurium): 0.007 mg/L
MIC [1]: 0.098 mg/L
MIC ([2]; Enterobacter cloacae, 1321E, 18 h): 0.007 mg/L
MIC (Enterobacter cloacae P99): < 0.002 mg/L
MIC (Escherichia coli DC0): 0.195 mg/L
MIC [3]: 0.013 mg/L
MIC (Escherichia coli DC2; Escherichia coli, DC2, 18 h): 0.025 mg/L
MIC [4]: 0.049 mg/L
MIC [5, 15]: 0.025 mg/L
MIC [6]: 0.195 mg/L
MIC (Escherichia coli 1507E): 0.013 mg/L
MIC [7]: 0.025 mg/L
MIC (Klebsiella oxytoca 1082E): < 0.002 mg/L
MIC [8, 16]: 0.195 mg/L
MIC [9, 17]: 0.004 mg/L
MIC [10]: 0.391 mg/L
MIC [11]: 0.195 mg/L
MIC [12]: 0.195 mg/L

CCOC(=O)C(C(=O)OCC)C(=O)c1cn(C2CC2)c2c(Cl)c(N3CC[C@H](NC)C3)c(F)cc2c1=O [Example 56, 1-cyclopropyl-6-fluoro-8-chloro-7-(3-3S-methylaminopyrrolidin-1-yl)-3-(2,2-diethoxycarbonylacetyl)-1,4-dihydro-4-oxoquinoline hydrochloride]
MIC (Escherichia coli TEM): 0.013 mg/L
MIC (Escherichia coli 078; Escherichia coli, 078, 18 h): 0.007 mg/L
MIC (Salmonella typhimurium): 0.007 mg/L
MIC [1]: 0.391 mg/L
MIC [2, 14]: 0.049 mg/L
MIC (Enterobacter cloacae P99): 0.013 mg/L
MIC (Escherichia coli DC0): 0.195 mg/L
MIC [3]: 0.098 mg/L
MIC (Escherichia coli DC2; Escherichia coli, DC2, 18 h): 0.049 mg/L
MIC [4]: 0.098 mg/L
MIC [5, 15]: 0.098 mg/L
MIC [6]: 0.781 mg/L
MIC (Escherichia coli 1507E): 0.013 mg/L
MIC [7]: 0.049 mg/L
MIC (Klebsiella oxytoca 1082E): 0.013 mg/L
MIC [8, 16]: 0.195 mg/L
MIC [9, 17]: 0.049 mg/L
MIC [10]: 0.781 mg/L
MIC [11]: 0.391 mg/L
MIC [12]: 0.195 mg/L

CCOC(=O)C(C(=O)OCC)C(=O)c1cn(C2CC2)c2c(OC)c(N3CCC(NC)C3)c(F)cc2c1=O (centres unmarked) [Example 60, 1-cyclopropyl-6-fluoro-8-methoxy-7-(3-methylaminopyrrolidin-1-yl)-3-(2,2-diethoxycarbonylacetyl)-1,4-dihydro-4-oxoquinoline hydrochloride]
MIC (Escherichia coli TEM): 0.098 mg/L
MIC (Escherichia coli 078; Escherichia coli, 078, 18 h): 0.098 mg/L
MIC (Salmonella typhimurium): 0.098 mg/L
MIC [1]: 1.56 mg/L
MIC [2, 14]: 0.098 mg/L
MIC (Enterobacter cloacae P99): 0.098 mg/L
MIC (Escherichia coli DC0): 0.781 mg/L
MIC [3]: 0.098 mg/L
MIC (Escherichia coli DC2; Escherichia coli, DC2, 18 h): 0.098 mg/L
MIC [4]: 0.781 mg/L
MIC [5, 15]: 0.195 mg/L
MIC [6]: 1.56 mg/L
MIC (Escherichia coli 1507E): 0.195 mg/L
MIC [7]: 0.195 mg/L
MIC (Klebsiella oxytoca 1082E): 0.013 mg/L
MIC [8, 18]: 0.781 mg/L
MIC [9, 17]: 0.195 mg/L
MIC [10]: 1.56 mg/L
MIC [11]: 1.56 mg/L
MIC [12]: 0.781 mg/L

CCOC(=O)C(C(=O)OCC)C(=O)c1cn(C2CC2)c2c(Cl)c(N3CC[C@@H](NC)C3)c(F)cc2c1=O [Example 55, 1-cyclopropyl-6-fluoro-8-chloro-7-(3-3R-methylaminopyrrolidin-1-yl)-3-(2,2-diethoxycarbonylacetyl)-1,4-dihydro-4-oxoquinoline hydrochloride]
MIC (Escherichia coli TEM): 0.025 mg/L
MIC (Escherichia coli 078; Escherichia coli, 078, 18 h): 0.013 mg/L
MIC (Salmonella typhimurium): 0.013 mg/L
MIC [1]: 0.391 mg/L
MIC [2, 14]: 0.049 mg/L
MIC (Enterobacter cloacae P99): 0.025 mg/L
MIC (Escherichia coli DC0): 0.391 mg/L
MIC [3]: 0.195 mg/L
MIC (Escherichia coli DC2; Escherichia coli, DC2, 18 h): 0.098 mg/L
MIC [4]: 0.195 mg/L
MIC [5, 15]: 0.195 mg/L
MIC [6]: 1.56 mg/L
MIC (Escherichia coli 1507E): 0.025 mg/L
MIC [7]: 0.098 mg/L
MIC (Klebsiella oxytoca 1082E): 0.025 mg/L
MIC [8, 16]: 0.391 mg/L
MIC [9, 17]: 0.049 mg/L
MIC [10]: 1.56 mg/L
MIC [11]: 0.391 mg/L
MIC [12]: 0.391 mg/L

CCOC(=O)C(C#N)C(=O)c1cn(C2CC2)c2c(Cl)c(N3CC=C(CNC)C3)c(F)cc2c1=O (centres unmarked) [Example 40, 1-cyclopropyl-6-fluoro-8-chloro-7-(3-methylaminomethyl-2,5-dihydropyrrol-1-yl)-3-(2-cyano-2-ethoxycarbonylacetyl)-1,4-dihydro-4-oxoquinoline hydrochloride]
MIC (Escherichia coli TEM): 0.391 mg/L
MIC (Escherichia coli 078; Escherichia coli, 078, 18 h): 0.098 mg/L
MIC (Salmonella typhimurium): 0.195 mg/L
MIC [1]: 6.25 mg/L
MIC [2, 14]: 0.049 mg/L
MIC (Enterobacter cloacae P99): 0.391 mg/L
MIC (Escherichia coli DC0): 6.25 mg/L
MIC [3]: 1.56 mg/L
MIC (Escherichia coli DC2; Escherichia coli DC2, Muller-Hinton agar, 37° C., 18 hours, read-out: MIC): 3.12 mg/L
MIC [4]: 3.12 mg/L
MIC [5, 15]: 3.12 mg/L
MIC [6]: 25 mg/L
MIC (Escherichia coli 1507E): 0.781 mg/L
MIC [7]: 1.56 mg/L
MIC (Klebsiella oxytoca 1082E): 0.049 mg/L
MIC [8, 16]: 12.5 mg/L
MIC [9]: 0.391 mg/L
MIC [10]: 12.5 mg/L
MIC [11]: 6.25 mg/L
MIC [12]: 12.5 mg/L

O=C(C[N+](=O)[O-])c1cn(C2CC2)c2cc(N3CCNCC3)c(F)cc2c1=O [Example 4, 1-cyclopropyl-6-fluoro-7-(piperazin-1-yl)-3-(2-nitroacetyl)-1,4-dihydro-4-oxoquinoline hydrochloride]
MIC (Escherichia coli TEM): 0.013 mg/L
MIC (Escherichia coli 078; [13]): < 0.002 mg/L
MIC (Salmonella typhimurium): 0.007 mg/L
MIC [1]: 0.195 mg/L
MIC [2, 14]: < 0.002 mg/L
MIC (Enterobacter cloacae P99): 0.007 mg/L
MIC (Escherichia coli DC0): 0.195 mg/L
MIC [3]: 0.781 mg/L
MIC (Escherichia coli DC2; Escherichia coli, DC2, 18 h): 0.391 mg/L
MIC [4]: 0.098 mg/L
MIC ([5]; hydrochloride): 0.391 mg/L
MIC [6]: 3.12 mg/L
MIC (Escherichia coli 1507E): 0.007 mg/L
MIC [7]: 0.195 mg/L
MIC (Klebsiella oxytoca 1082E): < 0.002 mg/L
MIC [8, 18]: 0.781 mg/L
MIC [9, 17]: 0.013 mg/L
MIC [10]: 0.195 mg/L
MIC [11]: 0.195 mg/L
MIC [12]: 0.781 mg/L
